Test results taken from patent US20190365685A1, “EYE DROPS FOR TREATING DRY EYE” (LTT BIO-PHARMA CO., LTD., priority 2013, published 2019).

Legend:
[1] = system: corneal surface disorders in the dry eye model; assay: Rat dry eye model, fluorescein score after four weeks of administration (Example 10); type: in vivo; settings: lacrimal gland removed, ophthalmic solution 5 μl, 0.05% (1.55 mM), three times a day
Protocol: The lacrimal gland of a rat was removed to prepare a dry eye model. One week after the lacrimal gland removal, an ophthalmic solution (5 μl) containing diclofenac (0.05%, 1.55 mM; or 0.1%, 3.1 mM) was administered three times a day. After four weeks from the start of the administration, the tears were subjected to fluorescein staining, and the fluorescein score was calculated. The same procedure as in Example 10 was followed, except that a buffer was used (Vehicle) in place of diclofenac.

HCE cells [2] = assay: MTT assay in hyperosmotic media with diclofenac, NaCl and/or PGE2 (Example 3); type: cell-based, Human; settings: 150 mM NaCl, 24 hours
Protocol: HCE cells were incubated in hyperosmotic media containing diclofenac, 150 mM NaCl, and/or PGE2 for 24 hours. The number of viable cells was measured by MTT assay, and the absorbance data were expressed as relative values to that of the control (under isotonic conditions).
The same procedure as in Example 3 was followed, except that bromfenac was used in place of diclofenac.

[3] = system: Human corneal epithelial cells (HCE cells); assay: MTT assay of viable cells under hyperosmotic conditions (Example 1); type: cell-based; settings: 150 mM NaCl, 280 mM glucose or 280 mM sorbitol, compared with other NSAIDs
Protocol: Human corneal epithelial cells (HCE cells) were incubated in hyperosmotic media containing diclofenac. The hyperosmotic conditions of each medium were created by 150 mM NaCl, 280 mM glucose, or 280 mM sorbitol. The number of viable cells was measured by MTT assay, and the absorbance was calculated relative to the control (under isotonic conditions). The values are represented as average±S.D. (n=3), with a single asterisk (*) indicating P<0.05 and a double asterisk (**) indicating P<0.01.
The same procedure as in Example 1 was followed, except that other nonsteroidal anti-inflammatory drugs (NSAIDs) were used in place of diclofenac.

NFAT5 = NFAT5 expression and nuclear translocation by immunoblotting (Example 4); type: cell-based, Human; settings: HCE cells, 150 mM NaCl, six hours or one hour
Protocol: HCE cells were incubated in hyperosmotic media containing diclofenac and 150 mM NaCl for six hours (FIG. 4A and FIG. 4C) or for one hour (FIG. 4B). Each whole cell homogenate (FIG. 4A and FIG. 4B) or nuclear extract (FIG. 4B) was analyzed by immunoblotting using an anti-NFAT5, anti-actin, or anti-lamin B antibody. The intensity of the NFAT5 band was measured and expressed as relative values to that of the control (under isotonic conditions without diclofenac) (FIG. 4A and FIG. 4B). The relative bgt1 mRNA expression level was measured by real-time RT-PCR, and the values normalized by the actin expression level are expressed as relative values to that of the control (under isotonic conditions without diclofenac) (FIG. 4C). The values are represented as average±S.D. (n=3), with a single asterisk (*) indicating P<0.05 and a double asterisk (**) indicating P<0.01. The same procedure as in Example 4 was followed, except that bromfenac was used in place of diclofenac.

[4] = system: corneal surface disorders in the dry eye model; assay: Rat dry eye model by lacrimal gland removal (Example 5); type: in vivo; settings: lacrimal gland removed, ophthalmic solution 5 μl, 0.1% (3.1 mM), three times a day, fluorescein score, TUNEL
Protocol: The lacrimal gland of a rat was removed to prepare a dry eye model. One to five weeks after the lacrimal gland removal, an ophthalmic solution (5 μl) containing diclofenac (0.1%, 3.1 mM) was administered three times a day. The amount of tears was measured by the cotton thread test. Five weeks after the lacrimal gland removal, ocular tissue sections were prepared and subjected to TUNEL assay and DAPI staining. The values are represented as average±S.E.M., with a single asterisk (*) indicating P<0.01 and n.s. meaning “not significant”. The same procedure as in Example 5 was followed, except that bromfenac was used in place of diclofenac.

HCE cells [5] = assay: Caspase-3-like activity under hyperosmotic conditions (Example 2); type: cell-based, Human; settings: 150 mM NaCl, six hours of incubation
Protocol: (§1) HCE cells were incubated in hyperosmotic media containing diclofenac and 150 mM NaCl. After six hours of incubation, the caspase-3-like activity was measured using a fluorescent peptide substrate. Furthermore, after 12 hours of incubation, cell proliferation was assessed by BrdU incorporation assay, and the absorbance data were expressed as relative values to that of the control (under isotonic conditions). The values are represented as average±S.D. (n=3), with a single asterisk (*) indicating P<0.05 and a double asterisk (**) indicating P<0.01. The same procedure as in Example 2 was followed, except that bromfenac was used in place of diclofenac.

PGE2 = assay: Amount of PGE2 induced by arachidonic acid, measured by EIA (Example 3); type: cell-based, Human; settings: HCE cells, 30 minutes pre-incubation, 10 μM arachidonic acid
Protocol: Separately, HCE cells were pre-incubated in media containing diclofenac for 30 minutes, and then incubated in media containing 10 μM arachidonic acid and diclofenac. The arachidonic acid was added to induce PGE2. The amount of PGE2 contained in each culture was measured by EIA. The values are represented as average±S.D. (n=3), with a single asterisk (*) indicating P<0.05 and a double asterisk (**) indicating P<0.01. The same procedure as in Example 3 was followed, except that bromfenac was used in place of diclofenac.

HCE cells [6] = assay: Cell proliferation by BrdU incorporation assay under hyperosmotic conditions (Example 2); type: cell-based, Human; settings: 150 mM NaCl, 12 hours of incubation
Protocol: as §1

Row | SMILES | corneal surface disorders in the dry eye model (fluorescein score) [1] | concentration required to reduce cytotoxicity caused by hyperosmolarity (HCE cells [2]; MTT) [nM] | reducing cytotoxicity under hyperosmotic conditions (number of viable cells, MTT) [3] | expression and nuclear translocation of NFAT5 (NFAT5) | effect of treating corneal surface disorders in the dry eye model [4] | inhibiting apoptosis under hyperosmotic conditions (caspase-3-like activity) (HCE cells [5]) | concentration required to reduce PGE2 (PGE2) [nM] | cell proliferative effect (BrdU incorporation) (HCE cells [6]) | number of viable cells with PGE2 (MTT) (HCE cells [2]; hyperosmotic media)
1 | O=C(O)Cc1ccccc1Nc1c(Cl)cccc1Cl [diclofenac] | treatable | 100 | highly effective in reducing cytotoxicity under hyperosmotic conditions | enhancing the expression and nuclear translocation of NFAT5 | exhibited the effect of treating corneal surface disorders | effective in inhibiting apoptosis under hyperosmotic conditions | 0.1 | exhibited a cell proliferative effect | 
2 | CCCCC[C@H](O)/C=C/[C@H]1[C@H](O)CC(=O)[C@@H]1C/C=C\CCCC(=O)O [PGE2, prostaglandin E2] |  |  |  |  |  |  |  |  | did not change
